Measurements published in US20250084062A1, “SUBSTITUTED QUINOLINE DERIVATIVE” (ASTELLAS PHARMA INC., priority 2021, published 2025).
Structures can show the parent of a compound that is named as a salt. Where two headings read alike, the source gives them in different places.

Tested on: acetylcholine receptor clustering in C2Cl2 cells
Assay: Induction of acetylcholine receptor clustering in mouse myoblasts C2Cl2 cells (Test Example 1)
Type: cell-based
Settings: for Emax / EC50: Mus musculus; for Emax: Myoblast, read-out: Max; for EC50: Myotube
Protocol: Test Example 1: Evaluation of the Induction of Acetylcholine Receptor Clustering in Mouse Myoblasts C2Cl2 Cells
Induction of acetylcholine receptor clustering by the test compound was evaluated by using fluorescently-labeled Bungarotoxin to image and quantify the acetylcholine receptor cluster region induced by the differentiation of myoblasts into myotubes, and measure the change in area. The following test method was optimized with reference to various reports including FEBS let., 586, 3111-3116 (2012). When a concentration response curve is obtained by plotting the logarithmic concentration of the test compound on the horizontal axis and the ratio of the area of acetylcholine receptor cluster region on the vertical axis, the inducing action of the test compound can be determined.
A concentration response curve as an index indicating acetylcholine receptor clustering inducing action of the test compound in mouse C2Cl2 cells was prepared. C2Cl2 cells (ATCC Number: CRL-1772) were seeded at about 5000 cells/well on a 384-well plate (354667; Corning) coated with type I collagen and allowed to incubate at 37 degrees Celsius overnight in DMEM+20% FBS+1% penicillin/streptomycin medium. The following day, the medium was removed and replaced with a differentiation medium containing DMEM+2% FBS+1% penicillin/streptomycin, and allowed to incubate at 37 degrees Celsius for 4 days. The test compound was dissolved in DMSO and added to a differentiation medium containing 0.1 ng/ml Agrin (550-AG-100; R&D systems) such that the final concentration was […] (3-fold serial dilution) or 0.00017 to 3.3 μM (3-fold serial dilution). The final concentration of DMSO was 0.3%. After the 4 days of incubation, the differentiation medium was replaced with a differentiation medium containing the test compound and 0.1 ng/ml Agrin or a differentiation medium containing 0.1 ng/ml Agrin or 10 ng/ml Agrin alone, and allowed to incubate at 37 degrees Celsius overnight. The next day, 10 μl of DMEM containing Bungarotoxin-Alexa488 (B13422; Life technologies) was added to the differentiation medium containing test compound and Agrin and Agrin alone so that the final concentration of Bungarotoxin-Alexa488 was 1 μg/ml, and was allowed to incubate at 37 degrees Celsius for 1 hour to label the acetylcholine receptor. After removing all the medium, 4% PFA was added to each well and allowed to incubate at room temperature for 10 minutes, then washed with PBS, and allowed to incubate at room temperature for 30 minutes in PBS containing 5% goat serum and 0.3% Triton X-100. After removing the PBS solution, PBS-Tween20 (28352; Thermo fisher scientific) containing Anti-Myosin Heavy Chain eFluor (registered trademark) 660 (50-6503-82; eBioscience) and DAPI (340-07971; Dojindo) was added to each well and allowed to incubate at room temperature for 1 hour to label the myotubes and nuclei. After washing three times with PBS-Tween20, the fluorescence was imaged using IN Cell Analyzer 6000 (GE Healthcare). […] The response of control group (1) was regarded as 0% and the response of the control group (2) was regarded as 100%. For quantification, the signal of only the acetylcholine receptor present in the myotube was used to eliminate non-specific fluorescence.
EC50 and Max value were used as indicators of activity in order to quantitatively evaluate the inducing action of the test compound on acetylcholine receptor clustering. EC50 value is a test compound concentration which indicates 50% in terms of the area of acetylcholine receptor cluster region compared to that of 10 ng/ml Agrin (regarded as 100%) in the concentration response curve. EC50 was calculated by nonlinear regression analysis from the concentration response curve using the area of the cluster region of the test compound as an index. Max value is the maximum response value. […]

[1] = maximum response, area of acetylcholine receptor cluster region vs 10 ng/ml Agrin (100%), 0.1 ng/ml Agrin = 0%
[2] = C2Cl2 myotubes, with 0.1 ng/ml Agrin, concentration giving 50% of cluster area of 10 ng/ml Agrin (100%), read-out: EC50

EC50 [2]	Structure (SMILES)	Emax [1]	response, % at 1.1 μM (at 1.1 μM, vs 10 ng/ml Agrin (100%))	Emax	EC50
3 nM	Cc1cc(-c2ccc(S(=O)(=O)N3CC[C@H](F)C3)cc2F)nc2cc(OCCN)ccc12 [Example 13, 2-[(2-{2-fluoro-4-[(3S)-3-fluoropyrrolidine-1-sulfonyl]phenyl}-4-methylquinolin-7-yl)oxy]ethan-1-amine hydrochloride]	117%	–	–	–
1900 nM	Cc1cc(-c2c(F)cc(S(=O)(=O)N3CC[C@@H](F)C3)cc2F)nc2cc(C(=O)O)ccc12 [Example 22]	84.8%	–	–	–
52 nM	Cc1cc(-c2c(F)cc(S(=O)(=O)N3CCC(F)CC3)cc2F)nc2cc(C(=O)NC3CN(C)C3)ccc12 [Example 41]	87%	–	–	–
16 nM	Cc1cc(-c2c(F)cc(S(=O)(=O)N3CC[C@H](F)C3)cc2F)nc2cc(CCC(=O)O)ccc12 [Example 34]	94.1%	–	–	–
1120 nM	Cc1cc(-c2ccc(S(=O)(=O)N3CC[C@H](F)C3)cc2C#N)nc2cc(C(=O)O)ccc12 [Example 30]	94.7%	–	–	–
65 nM	Cc1cc(-c2c(F)cc(S(=O)(=O)N3CC[C@H](F)C3)cc2F)nc2cc(CC(=O)O)ccc12 [Example 33]	86.1%	–	–	–
1850 nM	Cc1cc(-c2ccc(S(=O)(=O)N3CC[C@H](F)C3)cc2F)nc2c(F)c(C(=O)O)ccc12 [Example 7, 8-fluoro-2-{2-fluoro-4-[(3S)-3-fluoropyrrolidine-1-sulfonyl]phenyl}-4-methylquinoline-7-carboxylic acid]	78.4%	–	–	–
13 nM	Cc1cc(-c2c(F)cc(S(=O)(=O)N3CCC(F)CC3)cc2F)nc2cc(C(=O)N3CC(N)C3)ccc12 [Example 4, (3-aminoazetidin-1-yl) {2-[2,6-difluoro-4-(4-fluoropiperidine-1-sulfonyl)phenyl]-4-methylquinolin-7-yl}methanone]	81%	–	–	–
96 nM	Cc1cc(-c2c(F)cc(S(=O)(=O)N3CC[C@H](F)C3)cc2F)nc2cc(C(=O)NC3CCNC3)ccc12 (stereo partly shown) [Example 53]	77.9%	–	–	–
4030 nM	Cc1cc(-c2ccc(S(=O)(=O)N3C[C@@H](F)C[C@H]3CO)cc2F)nc2cc(C(=O)O)ccc12 [Example 28]	74.2%	–	–	–
147 nM	Cc1cc(-c2c(F)cc(S(=O)(=O)N3CCCC3)cc2F)nc2cc(C(=O)O)ccc12 [Example 21]	97.3%	–	–	–
103 nM	Cc1cc(-c2ccc(S(=O)(=O)N3C[C@@H](F)[C@H](F)C3)cc2F)nc2cc(C(=O)O)ccc12 [Example 27]	94.6%	–	–	–
3520 nM	Cc1cc(-c2ccc(S(=O)(=O)N3CCC[C@H](O)C3)cc2F)nc2cc(C(=O)O)ccc12 [Example 50]	70.5%	–	–	–
53 nM	Cc1cc(-c2ccc(S(=O)(=O)N3CC[C@H](F)C3)cc2F)nc2cc(C(=O)NCC3(O)CNC3)ccc12 [Example 65]	84%	–	–	–

The next lines start with the molecule.

Structure (SMILES)	EC50 [2]	Emax [1]	response, % at 1.1 μM (at 1.1 μM, vs 10 ng/ml Agrin (100%))	Emax	EC50
Cc1c(F)c(-c2c(F)cc(S(=O)(=O)N3CC[C@H](F)C3)cc2F)nc2cc(C(=O)N3CC4(CN(C)C4)C3)ccc12 [Example 45]	9 nM	86.1%	–	–	–
COc1cc(S(=O)(=O)N2CC[C@H](F)C2)cc(F)c1-c1cc(C)c2ccc(C(=O)O)nc2c1 [Example 8, 7-{2-fluoro-4-[(3S)-3-fluoropyrrolidine-1-sulfonyl]-6-methoxyphenyl}-5-methylquinoline-2-carboxylic acid]	45 nM	88.2%	–	–	–
Cc1cc(-c2c(F)cc(S(=O)(=O)N3CCC(F)CC3)cc2F)nc2nc(C(=O)O)ccc12 [Example 38]	724 nM	78.5%	–	–	–
Cc1cc(-c2c(F)cc(S(=O)(=O)N3CC[C@H](F)C3)cc2F)nc2cc(C(=O)NCCN(C)C)ccc12 [Example 43]	21 nM	91.6%	–	–	–
Cc1c(F)c(-c2c(F)cc(S(=O)(=O)N3CC[C@H](F)C3)cc2F)nc2cc(C(=O)O)ccc12 [Example 20, 2-{2,6-difluoro-4-[(3S)-3-fluoropyrrolidine-1-sulfonyl]phenyl}-3-fluoro-4-methylquinoline-7-carboxylic acid]	13 nM	86.5%	–	–	–
Cc1cc(-c2c(F)cc(S(=O)(=O)N3CCC(F)CC3)cc2F)nc2cc(C(=O)N3CC4(CNC4)C3)ccc12 [Example 14, (2,6-diazaspiro[3.3]heptan-2-yl) {2-[2,6-difluoro-4-(4-fluoropiperidine-1-sulfonyl)phenyl]-4-methylquinolin-7-yl}methanone]	21 nM	83.5%	–	–	–
Cc1cc(-c2c(F)cc(S(=O)(=O)N3CCC(F)CC3)cc2F)nc2cc(C(=O)NCCCN)ccc12 [Example 58]	33 nM	89.6%	–	–	–
Cc1cc(-c2ccc(S(=O)(=O)N3CC[C@H](F)C3)cc2F)nc2cc(C(=O)NS(=O)(=O)C3CC3)ccc12 [Example 9, N-(cyclopropanesulfonyl)-2-{2-fluoro-4-[(3S)-3-fluoropyrrolidine-1-sulfonyl]phenyl}-4-methylquinoline-7-carboxamide]	–	34.9%	34.9% at 1.1 μM	–	–
Cc1cc(-c2c(F)cc(S(=O)(=O)N3CC[C@H](F)C3)cc2F)nc2nc(C(=O)O)ccc12 [Example 39]	2570 nM	78.2%	–	–	–
Cc1cc(-c2c(F)cc(S(=O)(=O)N3CC[C@H](F)C3)cc2F)nc2nc(C3CCC(C(=O)O)CC3)ccc12 (stereo partly shown) [Example 37]	3220 nM	70.1%	–	–	–
Cc1c(F)c(-c2c(F)cc(S(=O)(=O)N3CC[C@H](F)C3)cc2F)nc2cc(C(=O)NC(C)(C)CC(=O)O)ccc12 [Example 54]	1490 nM	60.8%	–	–	–
Cc1c(F)c(-c2c(F)cc(S(=O)(=O)N3CC[C@H](F)C3)cc2F)nc2cc(C(=O)N3CC(C)(C(=O)O)C3)ccc12 [Example 11, 1-(2-{2,6-difluoro-4-[(3S)-3-fluoropyrrolidine-1-sulfonyl]phenyl}-3-fluoro-4-methylquinoline-7-carbonyl)-3-methylazetidine-3-carboxylic acid]	303 nM	80.2%	–	–	–
Cc1c(F)c(-c2c(F)cc(S(=O)(=O)N3CCCC3)cc2F)nc2cc(C(=O)O)ccc12 [Example 23]	69 nM	85.9%	–	–	–
Cc1cc(-c2c(F)cc(S(=O)(=O)N3CC[C@H](F)C3)cc2F)cc2nc(N3CCNCC3)ccc12 [Example 66]	10 nM	88.4%	–	–	–
Cc1cc(-c2ccc(S(=O)(=O)N3CCCCC3)cc2)nc2cc(OCCO)ccc12 [Example 63]	165 nM	104%	–	–	–
CNCCNC(=O)c1ccc2c(C)cc(-c3c(F)cc(S(=O)(=O)N4CCC(F)CC4)cc3F)nc2n1 [Example 60]	11 nM	99.2%	–	–	–
Cc1cc(-c2c(F)cc(S(=O)(=O)N3CCC(F)CC3)cc2F)nc2cc(C(=O)N3CC4(CN(C)C4)C3)ccc12 [Example 3, {2-[2,6-difluoro-4-(4-fluoropiperidine-1-sulfonyl)phenyl]-4-methylquinolin-7-yl}(6-methyl-2,6-diazaspiro[3.3]heptan-2-yl) methanone]	2 nM	91.8%	–	–	–
Cc1cc(-c2c(F)cc(S(=O)(=O)N3CC[C@H](F)C3)cc2F)nc2nc(C3=CCNCC3)ccc12 [Example 62]	–	–	–	86.4%	1 nM
Cc1c(F)c(-c2c(F)cc(S(=O)(=O)N3CCCC34CC4)cc2F)nc2cc(C(=O)O)ccc12 [Example 25]	182 nM	105%	–	–	–
CNCCN(C)C(=O)c1ccc2c(C)cc(-c3c(F)cc(S(=O)(=O)N4CC[C@H](F)C4)cc3F)nc2c1 [Example 59]	49 nM	95.8%	–	–	–
CNCCNC(=O)c1ccc2c(C)cc(-c3c(F)cc(S(=O)(=O)N4CC[C@H](F)C4)cc3F)nc2n1 [Example 61]	26 nM	92.4%	–	–	–
